Measured values published in PMC7259601 (PLoS ONE, 2020).

Assays:
[1] = molecular target: T1, Mouse recombinant KDM1B (Mus musculus, UniProt Q8CIG3); assay: KDM1B inhibition assay; assay type: biochemical
T1 construct: gift: Dr. Andrea Mattevi, University of Pavia
Method: Mouse recombinant KDM1B protein was kindly provided by Dr. Andrea Mattevi from the University of Pavia. The biochemical activity assay was carried out at room temperature in a similar manner as for KDM1A but using 50 mM HEPES pH 8.5 as the reaction buffer, but with 10 min of incubation of KDM1B in the presence of dimethylated H3K4 peptide at the KMapp of KDM1B.

[2] = molecular target: T2, AT2 (h) (agonist radioligand) (Homo sapiens, UniProt P50052); assay: CEREP Diversity Panel; assay type: binding
T2 construct: purchased CEREP (Eurofins Cerep)
Method: (§1) […]. MAO-A inhibition at 10 μM was 37%, in line with internal data.

[3] = molecular target: T3, PPARg (h) (agonist radioligand) (Homo sapiens, UniProt P37231); assay: CEREP Diversity Panel; assay type: binding
T3 construct: purchased CEREP (Eurofins Cerep)
Method: as §1

[4] = molecular target: T4, D4.4 (h) (antagonist radioligand) (Homo sapiens, UniProt P21917); assay: CEREP Diversity Panel; assay type: binding
T4 construct: purchased CEREP (Eurofins Cerep)
Method: as §1

[5] = molecular target: T5, B1 (h) (agonist radioligand) (Homo sapiens, UniProt P46663); assay: CEREP Diversity Panel; assay type: binding
T5 construct: purchased CEREP (Eurofins Cerep)
Method: as §1

[6] = molecular target: T6, CCK1 (CCKA) (h) (agonist radioligand) (Homo sapiens, UniProt P32238); assay: CEREP Diversity Panel; assay type: binding
T6 construct: purchased CEREP (Eurofins Cerep)
Method: as §1

[7] = molecular target: T7, V2 (h) (agonist radioligand) (Homo sapiens, UniProt P30518); assay: CEREP Diversity Panel; assay type: binding
T7 construct: purchased CEREP (Eurofins Cerep)
Method: as §1

[8] = molecular target: T8, V1a (h) (agonist radioligand) (Homo sapiens, UniProt P37288); assay: CEREP Diversity Panel; assay type: binding
T8 construct: purchased CEREP (Eurofins Cerep)
Method: as §1

[9] = molecular target: T9, NK1 (h) (agonist radioligand) (Homo sapiens, UniProt P25103); assay: CEREP Diversity Panel; assay type: binding
T9 construct: purchased CEREP (Eurofins Cerep)
Method: as §1

[10] = molecular target: T10, CCK2 (CCKB) (h) (agonist radioligand) (Homo sapiens, UniProt P32239); assay: CEREP Diversity Panel; assay type: binding
T10 construct: purchased CEREP (Eurofins Cerep)
Method: as §1

[11] = molecular target: T11, beta 2 (h) (agonist radioligand) (Homo sapiens, UniProt P07550); assay: CEREP Diversity Panel; assay type: binding
T11 construct: purchased CEREP (Eurofins Cerep)
Method: as §1

[12] = molecular target: T12, CB1 (h) (agonist radioligand) (Homo sapiens, UniProt P21554); assay: CEREP Diversity Panel; assay type: binding
T12 construct: purchased CEREP (Eurofins Cerep)
Method: as §1

[13] = molecular target: T13, NK2 (h) (agonist radioligand) (Homo sapiens, UniProt P21452); assay: CEREP Diversity Panel; assay type: binding
T13 construct: purchased CEREP (Eurofins Cerep)
Method: as §1

[14] = molecular target: T14, ETA (h) (agonist radioligand) (Homo sapiens, UniProt P25101); assay: CEREP Diversity Panel; assay type: binding
T14 construct: purchased CEREP (Eurofins Cerep)
Method: as §1

[15] = system: SAMP8 mice; assay: Novel Object Recognition Test (NORT); assay type: in vivo, mouse
Method: (§2) Both male and female mice from the senescence accelerated strain SAMP8 and its control SAMR1 of different ages (see Table S3 for details) were used in these studies. Mice were breed in the animal facilities of the Pharmacy Faculty (University of Barcelona), maintained in a at 22 ± 2 °C controlled temperature in a 12 hr light / dark cycle (lights on at 8:00 am; 300 lux/0 lux) with ad libitum access to food (2018 TEKLAD, Harlan) and water. Male mice were housed individually (males) or in groups of 4-5 animals (females) in plastic colony boxes with a sawdust bedding material. […] SAMR1 mice treated with vehicle were included as a control. All drugs were administered via drinking water and diluted in vehicle. Drug concentration was calculated weekly in function of body weight and corrected in function of drinking water consumption. Cognitive function was evaluated by NORT, social behavior was evaluated by RI and anxiety and motor function were evaluated by EPM and OF. When necessary, animals were deeply anesthetized (80 mg/kg sodium pentobarbital) and brain samples (hippocampus, (prefrontal) cortex) were micro-dissected and processed according to the downstream analysis.
The protocol was performed as previously described. Briefly, animals were placed in a 90°- two-arm maze. Mice were habituated to the apparatus for 10 min during 3 consecutive days. On day 4, two identical novel objects (A+A or B+B) were placed at the end of each arm and animals performed a 10-min acquisition trial. A 10-min retention trial was carried out 2 hr after the acquisition trial with object A and B. Time exploring the novel (NO) and the familiar object (FO) was measured and a discrimination Index (DI) was defined as (NO-FO)/(NO+FO). In some experiments, a more restrictive threshold was applied and animals exploring less than 5 sec (NO+FO) were excluded from the analysis (Table S3).
Novel Object Recognition Test (NORT): Time exploring the novel (NO) and the familiar object (FO) was measured and a discrimination Index (DI) was defined as (NO-FO)/(NO+FO). In some experiments, a more restrictive threshold was applied and animals exploring less that 5 sec (NO+FO) were excluded from the analysis (Table S3). Open Field (OF): Locomotor activity was analyzed by video-tracking over the captured images using SMART® (v 2.5.21 (rat) or v3.0 (mice), PanLab, SLU, Spain).

[16] = system: SAMP8 mice; assay: Resident Intruder (RI) test, SAMP8; assay type: in vivo, mouse; conditions: 0.32 or 0.96 mg/kg/day for 5 weeks, male
Method: as §2
The protocol was modified from previously described. Briefly, the test subject (resident) was maintained in its home cage without bedding changes for one week. […] In mice the session was video-recorded for 20 min and social interaction (social interaction and rearings) and aggressive behavior (lateral threats, clinch attacks, keep-down behavior) were analyzed. […] In rats the session was video recorded for 15 min and social interaction (active and passive social interaction, number of evitations and time without social interaction) were analyzed. […] In addition, the time spent without social interaction was also measured.
Resident Intruder (RI): Mice were video-recorded for 20 min and social interaction and aggressive behavior were analyzed. Rats were video recorded for 15 min and social interaction (active and passive social interaction, number of evitations and time without social interaction) were analyzed.

T1 sequence (Q8CIG3 whole entry): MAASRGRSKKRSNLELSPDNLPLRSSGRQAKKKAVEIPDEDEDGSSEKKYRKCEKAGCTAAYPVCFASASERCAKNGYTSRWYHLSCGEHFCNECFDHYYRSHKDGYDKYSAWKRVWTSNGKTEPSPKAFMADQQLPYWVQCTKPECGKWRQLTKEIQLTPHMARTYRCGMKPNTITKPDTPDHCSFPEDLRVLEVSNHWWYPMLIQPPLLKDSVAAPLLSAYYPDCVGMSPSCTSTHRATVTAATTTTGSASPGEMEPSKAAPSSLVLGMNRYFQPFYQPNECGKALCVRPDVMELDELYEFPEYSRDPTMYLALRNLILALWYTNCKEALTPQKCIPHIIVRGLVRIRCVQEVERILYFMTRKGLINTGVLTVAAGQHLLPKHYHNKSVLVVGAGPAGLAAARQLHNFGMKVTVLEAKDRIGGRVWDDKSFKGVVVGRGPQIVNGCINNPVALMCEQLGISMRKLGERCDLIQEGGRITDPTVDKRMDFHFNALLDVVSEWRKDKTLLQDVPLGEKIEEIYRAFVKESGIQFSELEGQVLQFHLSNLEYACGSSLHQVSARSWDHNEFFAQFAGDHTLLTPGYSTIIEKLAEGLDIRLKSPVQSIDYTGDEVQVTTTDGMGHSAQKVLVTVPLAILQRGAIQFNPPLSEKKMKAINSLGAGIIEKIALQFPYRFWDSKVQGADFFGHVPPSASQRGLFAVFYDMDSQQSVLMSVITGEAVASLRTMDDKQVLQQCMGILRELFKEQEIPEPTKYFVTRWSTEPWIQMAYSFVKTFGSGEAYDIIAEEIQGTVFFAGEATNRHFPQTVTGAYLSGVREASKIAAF
T7 sequence (P30518 whole entry): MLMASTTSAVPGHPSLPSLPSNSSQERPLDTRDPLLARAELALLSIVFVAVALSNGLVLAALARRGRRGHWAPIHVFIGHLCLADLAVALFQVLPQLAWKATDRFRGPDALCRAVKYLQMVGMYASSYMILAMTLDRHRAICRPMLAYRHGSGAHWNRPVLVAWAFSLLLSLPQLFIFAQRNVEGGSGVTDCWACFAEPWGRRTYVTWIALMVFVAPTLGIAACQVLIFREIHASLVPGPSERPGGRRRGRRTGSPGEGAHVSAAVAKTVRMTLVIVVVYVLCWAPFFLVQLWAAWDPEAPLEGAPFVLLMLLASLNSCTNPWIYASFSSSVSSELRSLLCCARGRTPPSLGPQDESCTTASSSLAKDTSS
T3 sequence (P37231 whole entry): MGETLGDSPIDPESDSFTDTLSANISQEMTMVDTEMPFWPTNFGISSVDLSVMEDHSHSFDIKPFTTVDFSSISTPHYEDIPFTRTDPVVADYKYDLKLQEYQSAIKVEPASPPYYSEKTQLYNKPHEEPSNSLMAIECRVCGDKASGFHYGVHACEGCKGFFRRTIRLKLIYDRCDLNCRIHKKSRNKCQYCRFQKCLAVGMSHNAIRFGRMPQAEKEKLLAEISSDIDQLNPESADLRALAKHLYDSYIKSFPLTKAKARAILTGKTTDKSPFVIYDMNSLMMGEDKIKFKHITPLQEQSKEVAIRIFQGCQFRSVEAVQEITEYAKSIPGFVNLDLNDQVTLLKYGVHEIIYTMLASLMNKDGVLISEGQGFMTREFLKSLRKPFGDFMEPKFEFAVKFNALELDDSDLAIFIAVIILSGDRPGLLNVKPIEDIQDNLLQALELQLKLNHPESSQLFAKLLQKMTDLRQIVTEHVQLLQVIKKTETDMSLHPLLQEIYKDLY
T13 sequence (P21452 whole entry): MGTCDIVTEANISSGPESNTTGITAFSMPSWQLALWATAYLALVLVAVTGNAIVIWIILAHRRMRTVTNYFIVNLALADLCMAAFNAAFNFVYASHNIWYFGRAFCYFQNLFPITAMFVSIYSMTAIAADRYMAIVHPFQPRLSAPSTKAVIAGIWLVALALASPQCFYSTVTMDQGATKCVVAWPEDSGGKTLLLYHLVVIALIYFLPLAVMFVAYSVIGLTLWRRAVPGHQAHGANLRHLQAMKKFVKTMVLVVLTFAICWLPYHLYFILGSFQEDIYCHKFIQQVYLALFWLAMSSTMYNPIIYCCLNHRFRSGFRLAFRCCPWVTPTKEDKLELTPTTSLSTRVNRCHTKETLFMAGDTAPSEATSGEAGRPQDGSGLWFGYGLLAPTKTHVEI
T9 sequence (P25103 whole entry): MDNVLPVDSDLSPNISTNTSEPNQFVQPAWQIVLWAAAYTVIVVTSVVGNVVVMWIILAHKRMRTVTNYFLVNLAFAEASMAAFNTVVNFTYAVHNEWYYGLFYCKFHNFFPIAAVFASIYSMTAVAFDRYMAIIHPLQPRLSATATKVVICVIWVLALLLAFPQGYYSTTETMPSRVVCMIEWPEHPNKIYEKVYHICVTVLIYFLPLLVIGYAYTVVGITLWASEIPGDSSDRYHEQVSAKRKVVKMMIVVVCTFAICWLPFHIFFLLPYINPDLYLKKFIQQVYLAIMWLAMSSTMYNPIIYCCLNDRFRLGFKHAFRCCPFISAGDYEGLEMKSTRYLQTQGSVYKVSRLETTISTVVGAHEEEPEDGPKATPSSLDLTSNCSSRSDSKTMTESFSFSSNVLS
T14 sequence (P25101 21-427): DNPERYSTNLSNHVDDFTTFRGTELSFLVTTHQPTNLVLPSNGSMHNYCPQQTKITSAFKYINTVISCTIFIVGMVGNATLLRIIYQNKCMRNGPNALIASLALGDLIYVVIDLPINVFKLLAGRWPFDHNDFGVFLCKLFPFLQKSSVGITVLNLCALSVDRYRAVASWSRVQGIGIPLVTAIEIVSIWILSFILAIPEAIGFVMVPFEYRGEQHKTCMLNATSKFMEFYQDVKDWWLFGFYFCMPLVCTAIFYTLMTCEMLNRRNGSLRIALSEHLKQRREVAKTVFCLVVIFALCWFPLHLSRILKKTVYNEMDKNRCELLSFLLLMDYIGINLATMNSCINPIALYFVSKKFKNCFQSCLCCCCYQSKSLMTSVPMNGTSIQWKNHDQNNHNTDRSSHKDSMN
T10 sequence (P32239 whole entry): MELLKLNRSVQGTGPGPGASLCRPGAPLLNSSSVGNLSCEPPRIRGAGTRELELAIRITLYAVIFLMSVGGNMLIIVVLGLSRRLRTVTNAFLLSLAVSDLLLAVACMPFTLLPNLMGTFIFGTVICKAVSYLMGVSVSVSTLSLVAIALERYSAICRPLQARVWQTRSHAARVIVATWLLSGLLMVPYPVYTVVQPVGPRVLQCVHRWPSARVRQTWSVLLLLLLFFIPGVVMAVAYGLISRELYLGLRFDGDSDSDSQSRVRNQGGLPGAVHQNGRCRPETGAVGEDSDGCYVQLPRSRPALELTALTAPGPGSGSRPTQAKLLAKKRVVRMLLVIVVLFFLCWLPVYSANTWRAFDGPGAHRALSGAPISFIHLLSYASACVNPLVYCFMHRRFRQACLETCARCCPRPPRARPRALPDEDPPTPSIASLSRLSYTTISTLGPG
T12 sequence (P21554 whole entry): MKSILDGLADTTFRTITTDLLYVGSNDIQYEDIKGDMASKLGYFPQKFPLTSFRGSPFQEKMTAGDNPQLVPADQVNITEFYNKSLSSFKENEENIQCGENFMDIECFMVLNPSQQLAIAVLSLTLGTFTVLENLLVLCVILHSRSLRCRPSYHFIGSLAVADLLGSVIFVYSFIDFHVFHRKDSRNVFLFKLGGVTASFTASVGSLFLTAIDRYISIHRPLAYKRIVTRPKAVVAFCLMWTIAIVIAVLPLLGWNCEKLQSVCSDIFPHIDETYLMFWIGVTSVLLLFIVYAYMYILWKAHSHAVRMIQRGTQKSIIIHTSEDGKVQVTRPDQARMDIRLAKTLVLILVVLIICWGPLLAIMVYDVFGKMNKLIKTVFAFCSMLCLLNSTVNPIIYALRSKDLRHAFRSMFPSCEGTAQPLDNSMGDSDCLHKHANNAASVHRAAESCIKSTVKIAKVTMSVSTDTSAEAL
T6 sequence (P32238 whole entry): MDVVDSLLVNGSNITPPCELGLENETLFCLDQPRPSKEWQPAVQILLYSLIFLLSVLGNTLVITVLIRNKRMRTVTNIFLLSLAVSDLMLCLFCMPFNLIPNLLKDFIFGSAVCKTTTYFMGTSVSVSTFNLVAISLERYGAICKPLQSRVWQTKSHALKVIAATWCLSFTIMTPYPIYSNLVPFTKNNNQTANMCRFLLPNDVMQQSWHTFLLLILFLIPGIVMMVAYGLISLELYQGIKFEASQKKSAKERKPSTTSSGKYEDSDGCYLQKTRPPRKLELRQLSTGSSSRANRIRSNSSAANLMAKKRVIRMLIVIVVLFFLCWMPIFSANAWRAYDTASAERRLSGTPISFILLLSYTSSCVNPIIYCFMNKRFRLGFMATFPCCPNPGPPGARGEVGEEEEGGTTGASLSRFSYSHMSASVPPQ
T11 sequence (P07550 whole entry): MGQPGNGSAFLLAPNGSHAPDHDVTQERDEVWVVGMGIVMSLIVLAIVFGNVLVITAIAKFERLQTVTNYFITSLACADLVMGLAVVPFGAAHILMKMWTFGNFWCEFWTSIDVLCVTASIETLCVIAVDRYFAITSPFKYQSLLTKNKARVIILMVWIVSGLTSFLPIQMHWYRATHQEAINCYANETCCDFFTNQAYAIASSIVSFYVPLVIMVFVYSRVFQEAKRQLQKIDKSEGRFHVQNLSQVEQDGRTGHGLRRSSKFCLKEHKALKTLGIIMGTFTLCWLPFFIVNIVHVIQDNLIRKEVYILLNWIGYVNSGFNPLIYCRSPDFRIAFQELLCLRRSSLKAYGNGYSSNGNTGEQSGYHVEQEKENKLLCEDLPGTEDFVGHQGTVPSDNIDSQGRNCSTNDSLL

## Nc1nnc(CN[C@@H]2C[C@H]2c2ccc(OCc3ccccc3)cc2)o1 [ORY-2001, vafidemstat]
[1]
  inhibition at 10 µM: 7%
[2]
  inhibition at 10 µM: -6%
[3]
  inhibition at 10 µM: 4%
[4]
  inhibition at 10 µM: 9%
[5]
  inhibition at 10 µM: -1%
[6]
  inhibition at 10 µM: -2%
[7]
  inhibition at 10 µM: -12%
[8]
  inhibition at 10 µM: 1%
[9]
  inhibition at 10 µM: 3%
[10]
  inhibition at 10 µM: -15%
[11]
  inhibition at 10 µM: 5%
[12]
  inhibition at 10 µM: 5%
[13]
  inhibition at 10 µM: 2%
[14]
  inhibition at 10 µM: -23%
[15]; 0.32 and 0.96 mg/kg/day (Exp3, Exp4)
  NORT discrimination capacity: completely restored the discrimination capacity
[15]; 5 day treatment at 0.96 mg/kg/day (Exp5)
  NORT discrimination capacity, short treatment: equally effective as a one month treatment
[15]; eight month old, treated 4 months (Exp7)
  NORT performance of aged SAMP8 mice: fully rescued the performance
[15]; lowest dose (0.11 mg/kg/day)
  rescue of NORT discrimination deficit: ~ 50%
[16]
  latency to attack: tendency to increase the latency to attack
  number of attacks and clinch attacks: lowered to SAMR1 levels
  time in social interactions and number of rearings: No significant strain- or treatment-differences
